Data from the supplement of paper PMC10307832.

Key:
Assay in all cases: relative viability (nuclei count vs DMSO), 5 days (fraction); higher = more cells survive
NCI-H2342 = tested on: NCI-H2342
Outline: (§1)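 One day after seeding in 1536-well plates, lung cancer cell lines were dosed by pin tool. Dosing was either single-drug or a fixed anchor-drug dose plus five library-drug doses (not always all listed) in √10 steps. After 5 days, nuclei were stained in one fix-and-stain step and counted on 4× images, and relative viability is the nuclei count of treated wells over that of vehicle wells, given as the median of duplicate plates.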

NCI-H2170 = tested on: NCI-H2170
Outline: as §1

NCI-H1395 = tested on: NCI-H1395
Outline: as §1

NCI-H661 = tested on: NCI-H661
Outline: as §1

HCC-366 = tested on: HCC-366
Outline: as §1

BEN = tested on: BEN
Outline: as §1

NCI-H1734 = tested on: NCI-H1734
Outline: as §1

SK-MES-1 = tested on: SK-MES-1
Outline: as §1

NCI-H1993 = tested on: NCI-H1993
Outline: as §1

NCI-H1437 = tested on: NCI-H1437
Outline: as §1

NCI-H1355 = tested on: NCI-H1355
Outline: as §1

SMILES: O=c1cc(N2CCOCC2)oc2c(-c3cccc4c3sc3ccccc34)cccc12 + Nc1nc2[nH]cc(CCc3ccc(C(=O)N[C@@H](CCC(=O)O)C(=O)O)cc3)c2c(=O)[nH]1 [Pemetrexed] (partner 0.2 µM)
- relative viability (NCI-H2342; first compound 0.01 µM): 0.795
- relative viability (NCI-H2342; first compound 0.03162 µM): 0.753
- relative viability (NCI-H2342; first compound 0.1 µM): 0.772
- relative viability (NCI-H2342; first compound 0.3162 µM): 0.755
- relative viability (NCI-H2342; first compound 1 µM): 0.784
- relative viability (NCI-H2170; first compound 0.01 µM): 0.253
- relative viability (NCI-H2170; first compound 0.03162 µM): 0.251
- relative viability (NCI-H2170; first compound 0.1 µM): 0.263
- relative viability (NCI-H2170; first compound 0.3162 µM): 0.267
- relative viability (NCI-H2170; first compound 1 µM): 0.255
- relative viability (NCI-H1395; first compound 0.03162 µM): 0.908
- relative viability (NCI-H1395; first compound 0.1 µM): 0.909
- relative viability (NCI-H1395; first compound 0.3162 µM): 1.01
- relative viability (NCI-H1395; first compound 1 µM): 0.855
- relative viability (NCI-H661; first compound 0.01 µM): 0.867
- relative viability (NCI-H661; first compound 0.03162 µM): 0.898
- relative viability (NCI-H661; first compound 0.1 µM): 0.95
- relative viability (NCI-H661; first compound 0.3162 µM): 0.925
- relative viability (NCI-H661; first compound 1 µM): 0.892
- relative viability (HCC-366; first compound 0.01 µM): 0.159
- relative viability (HCC-366; first compound 0.03162 µM): 0.181
- relative viability (HCC-366; first compound 0.1 µM): 0.149
- relative viability (HCC-366; first compound 0.3162 µM): 0.144
- relative viability (HCC-366; first compound 1 µM): 0.186
- relative viability (BEN; first compound 0.01 µM): 0.79
- relative viability (BEN; first compound 0.03162 µM): 0.746
- relative viability (BEN; first compound 0.1 µM): 0.653
- relative viability (BEN; first compound 0.3162 µM): 0.89
- relative viability (BEN; first compound 1 µM): 0.705
- relative viability (NCI-H1734; first compound 0.01 µM): 0.453
- relative viability (NCI-H1734; first compound 0.03162 µM): 0.425
- relative viability (NCI-H1734; first compound 0.1 µM): 0.406
- relative viability (NCI-H1734; first compound 0.3162 µM): 0.412
- relative viability (NCI-H1734; first compound 1 µM): 0.396
- relative viability (SK-MES-1; first compound 0.01 µM): 0.868
- relative viability (SK-MES-1; first compound 0.03162 µM): 0.943
- relative viability (SK-MES-1; first compound 0.1 µM): 0.906
- relative viability (SK-MES-1; first compound 0.3162 µM): 0.821
- relative viability (SK-MES-1; first compound 1 µM): 0.91
- relative viability (NCI-H1993; first compound 0.01 µM): 0.624
- relative viability (NCI-H1993; first compound 0.03162 µM): 0.524
- relative viability (NCI-H1993; first compound 0.1 µM): 0.621
- relative viability (NCI-H1993; first compound 0.3162 µM): 0.54
- relative viability (NCI-H1993; first compound 1 µM): 0.553
- relative viability (NCI-H1437; first compound 0.01 µM): 0.327
- relative viability (NCI-H1437; first compound 0.03162 µM): 0.292
- relative viability (NCI-H1437; first compound 0.1 µM): 0.313
- relative viability (NCI-H1437; first compound 0.3162 µM): 0.314
- relative viability (NCI-H1437; first compound 1 µM): 0.314
- relative viability (NCI-H1355; first compound 0.01 µM): 1.12
- relative viability (NCI-H1355; first compound 0.03162 µM): 0.915
- relative viability (NCI-H1355; first compound 0.1 µM): 1.05
- relative viability (NCI-H1355; first compound 0.3162 µM): 1.1
- relative viability (NCI-H1355; first compound 1 µM): 0.981
